The experiment concerns the target T1, Aromatase (Homo sapiens, UniProt P11511).
T1 sequence (P11511 whole entry): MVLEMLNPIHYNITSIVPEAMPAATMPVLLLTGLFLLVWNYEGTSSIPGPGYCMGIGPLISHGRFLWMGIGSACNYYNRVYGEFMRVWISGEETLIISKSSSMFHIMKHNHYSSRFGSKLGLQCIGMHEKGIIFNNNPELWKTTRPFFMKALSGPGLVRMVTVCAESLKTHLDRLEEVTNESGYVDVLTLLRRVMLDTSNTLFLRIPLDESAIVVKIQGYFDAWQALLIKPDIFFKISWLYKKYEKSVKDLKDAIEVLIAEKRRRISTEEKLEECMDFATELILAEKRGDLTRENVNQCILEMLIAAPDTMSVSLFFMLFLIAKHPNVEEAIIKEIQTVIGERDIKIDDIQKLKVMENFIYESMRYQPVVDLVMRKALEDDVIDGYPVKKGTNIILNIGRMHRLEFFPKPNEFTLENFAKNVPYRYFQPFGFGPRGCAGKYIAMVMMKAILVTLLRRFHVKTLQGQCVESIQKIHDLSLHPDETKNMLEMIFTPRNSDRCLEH
With `C[C@]12C=CC(=O)C=C1[C@@H](Cc1ccccc1)C[C@@H]1[C@@H]2CC[C@]2(C)C(=O)CC[C@@H]12`, inhibition was half-maximal at 0.27 µM (IC50). In other words, the sub-micromolar range.

`COC1=C[C@@]2(C)C(=CC1=O)CC[C@@H]1[C@@H]2CC[C@]2(C)C(=O)CC[C@@H]12` had a concentration for half-maximal inhibition (IC50) of 1.1 µM.

In turn, `C[C@]12CCC(=O)C=C1C(CCCCc1ccccc1)=C[C@@H]1[C@@H]2CC[C@]2(C)C(=O)CC[C@@H]12` had a half-inhibitory concentration (IC50) of 0.28 µM.

Turning to `C[C@]12CCC(=O)C=C1[C@H](CCCCCc1ccccc1)C[C@@H]1[C@@H]2CC[C@]2(C)C(=O)CC[C@@H]12`, the IC50 was 450 µM. Compared with the last compound, the IC50 is about 1600-fold higher.

`CCCCC1C[C@H]2[C@@H]3CC[C@H](O)[C@@]3(C)CC[C@@H]2[C@@]2(C)C=CC(=O)C=C12` (some centres not stated) had a half-maximal inhibitory concentration (IC50) of 0.064 µM. This IC50 is about 7000-fold lower than that of the compound before.

With `CCC1C[C@H]2[C@@H]3CC[C@H](O)[C@@]3(C)CC[C@@H]2[C@@]2(C)CCC(=O)C=C12` (some centres not stated), the IC50 was 0.052 µM.

Compound `C[C@]12C=CC(=O)C=C1[C@@H](CCCCCc1ccccc1)C[C@@H]1[C@@H]2CC[C@]2(C)C(=O)CC[C@@H]12` showed an IC50 of 0.33 µM.

Regarding `C[C@]12C=CC(=O)C=C1[C@H](CCc1ccccc1)C[C@@H]1[C@@H]2CC[C@]2(C)C(=O)CC[C@@H]12`, it took 0.579 µM to reach half-maximal inhibition (IC50).

In turn, `C[C@]12CC[C@H]3[C@@H](C=CC4=CC(=O)C=C[C@@]43CI)[C@@H]1CCC2=O` gave a half-inhibitory concentration (IC50) of 4.7 µM.

The compound `CCCC[C@@H]1C[C@@]2(C)C(=CC1=O)CC[C@@H]1[C@@H]2CC[C@]2(C)C(=O)CC[C@@H]12` gave an IC50 of 1.93 µM.

In turn, `C[C@H]1C[C@@H]2[C@H](CC[C@]3(C)C(=O)CC[C@@H]23)[C@@]2(C)CCC(=O)C=C12` showed an IC50 of 0.35 µM. Against the preceding compound, the IC50 is about 5.5-fold lower.

With `CCC1=C[C@@]2(C)C(=CC1=O)CC[C@@H]1[C@@H]2CC[C@]2(C)C(=O)CC[C@@H]12`, half-maximal inhibition (IC50) was put at 0.959 µM.

The compound `C[C@]12CC[C@H]3[C@@H](CCC4=CC(=O)C(O)C[C@@]43C(F)F)[C@@H]1CCC2=O` (some centres not stated) gave an IC50 of 3.8 µM.

For `C[C@]12CC[C@@H]3c4cc(N)c(O)cc4CC[C@H]3[C@@H]1CCC2=O`, inhibition was half-maximal at 31 µM (IC50).

The compound `C[C@]12CC[C@H]3[C@@H](CC(=O)C4=CC(=O)CC[C@@]43C)[C@@H]1CC[C@@H]2OC(=O)CBr` had a 50% inhibitory concentration (IC50) of 42 µM.

On to `C[C@]12CC[C@@H]3c4cc(NC(=O)c5cccnc5)c(O)cc4CC[C@H]3[C@@H]1CCC2=O`, for which the IC50 was 75.3 µM.

Compound `CC[C@H]1C[C@@H]2[C@H](CC[C@]3(C)C(O)CC[C@@H]23)[C@@]2(C)CCCC=C12` (some centres not stated) gave an IC50 of 0.13 µM.

As for `C[C@]12C=C(CCc3ccc(C(F)(F)F)cc3)C(=O)C=C1CC[C@@H]1[C@@H]2CC[C@]2(C)C(=O)CC[C@@H]12`, the IC50 was 34.1 µM. Against the preceding compound, the IC50 is about 260-fold higher.

The compound `C[C@]12CC[C@@H]3c4cc(F)c(O)cc4CC[C@H]3[C@@H]1CC[C@@H]2O` gave an IC50 of 76.9 µM.

`CCO[C@@H]1C[C@@H]2[C@H](CC[C@]3(C)C(=O)CC[C@@H]23)c2ccc(O)cc21`: the IC50 is 83.9 µM. The IC50 values of the last two compounds are within 1.5-fold of each other.

Turning to `C[C@]12C=CC(=O)C=C1[C@H](CCCCc1ccccc1)C[C@@H]1[C@@H]2CC[C@]2(C)C(=O)CC[C@@H]12`, the IC50 was 0.47 µM.

`C[C@]12CCC(=O)C=C1[C@H](OC(=O)CBr)C[C@@H]1[C@@H]2CC[C@]2(C)C(=O)CC[C@@H]12` showed a concentration for half-maximal inhibition (IC50) of 45 µM.

The compound `CCOC1=C2C(=O)C[C@@H]3[C@H](CC[C@]4(C)C(=O)CC[C@@H]34)[C@@]2(C)CCC1=O` showed a half-maximal inhibitory concentration (IC50) of 4.5 µM.

In turn, `CCCCS[C@@H]1CC2=CC(=O)CC[C@]2(C)[C@H]2CC[C@]3(C)C(=O)CC[C@H]3[C@H]12` showed an IC50 of 0.057 µM.

`C[C@]12CC[C@@H]3c4cc(Br)c(O)cc4CC[C@H]3[C@@H]1CCC2=O`: the IC50 was 2.4 µM.

`C[C@]12CCC(=O)C=C1C(c1ccccc1)=C[C@@H]1[C@@H]2CC[C@]2(C)C(=O)CC[C@@H]12` gave a half-maximal inhibitory concentration (IC50) of 0.2 µM. This IC50 is about 12-fold lower than that of the compound before.

The compound `C[C@]12CCCCC1=CC[C@@H]1[C@@H]2CC[C@]2(C)C(=O)CC[C@@H]12` showed an IC50 of 0.681 µM.

Consider `C[C@]12CCCC=C1CC[C@@H]1[C@@H]2CC[C@]2(C)C(=O)[C@H](Br)C[C@@H]12`, for which the IC50 was 4.1 µM. Compared with the last compound, the IC50 is about 6-fold higher.

Regarding `CCCC1=C[C@@]2(C)C(=CC1=O)CC[C@@H]1[C@@H]2CC[C@]2(C)C(=O)CC[C@@H]12`, it took 1.75 µM to reach half-maximal inhibition (IC50).

As to `C[C@]12CC[C@H]3[C@@H](CC(=O)C4=CCCC[C@@]43CO)[C@@H]1CCC2=O`, the IC50 is 5.79 µM.

`C[C@]12C[C@@H](CCc3ccccc3)C(=O)C=C1CC[C@@H]1[C@@H]2CC[C@]2(C)C(=O)CC[C@@H]12`: the IC50 is 126 µM. This IC50 is about 22-fold higher than that of the compound before.

As to `C[C@]12C=CC(=O)C=C1C(CCCCCc1ccccc1)=C[C@@H]1[C@@H]2CC[C@]2(C)C(=O)CC[C@@H]12`, the IC50 was 0.1 µM.

For `C[C@]12CCC(=O)C=C1C(CCc1ccccc1)=C[C@@H]1[C@@H]2CC[C@]2(C)C(=O)CC[C@@H]12`, inhibition was half-maximal at 0.092 µM (IC50).

With `C[C@]12CC[C@H]3[C@@H](CCC4=CC(=O)CC[C@@]43C)[C@@H]1CC[C@@H]2OC(=O)CBr`, 50 µM corresponded to half-maximal inhibition (IC50).

As to `CCC[C@H]1C[C@@H]2[C@H](CC[C@]3(C)C(=O)CC[C@@H]23)[C@@]2(C)C=CC(=O)C=C12`, the IC50 was 0.27 µM.

Take `C[C@]12CCC(=O)c3c1c(nn3Cc1ccc([N+](=O)[O-])cc1)C[C@@H]1[C@@H]2CC[C@]2(C)C(=O)CC[C@@H]12`: the IC50 was 0.658 µM.

With `C[C@]12C=CC(=O)C=C1C=C[C@@H]1[C@@H]2CC[C@]2(C)C(=O)CC[C@@H]12`, the IC50 is 0.45 µM.

On to `C[C@]12CC[C@@H]3c4ccc(O)c(NC(=O)c5cccnc5)c4CC[C@H]3[C@@H]1CCC2=O`, for which the 50% inhibitory concentration (IC50) is 95.7 µM.

`C[C@]12CCC(=O)c3c1c(nn3Cc1ccccc1)C[C@@H]1[C@@H]2CC[C@]2(C)C(=O)CC[C@@H]12` gave an IC50 of 0.342 µM. Compared with the last compound, the IC50 is about 280-fold lower.

Turning to `C[C@]12CC[C@H]3[C@@H](C=CC4=CC(=O)CC[C@@]43CI)[C@@H]1CCC2=O`, the half-inhibitory concentration (IC50) is 6.1 µM.

For the compound `C[C@]12CCCC=C1CC[C@@H]1[C@@H]2CC[C@]2(C)C(=O)[C@H](O)C[C@@H]12`, the IC50 is 4 µM.

On to `C[C@]12C=CC(=O)C=C1[C@@H](CCCc1ccccc1)C[C@@H]1[C@@H]2CC[C@]2(C)C(=O)CC[C@@H]12`, for which the 50% inhibitory concentration (IC50) is 0.511 µM.

Consider `CCCC[C@H]1C[C@@H]2[C@H](CC[C@]3(C)C(=O)CC[C@@H]23)[C@@]2(C)CCC(=O)C=C12`, for which inhibition was half-maximal at 0.791 µM (IC50).

Compound `C[C@]12CCC(=O)C=C1[C@@H]1N[C@@H]1[C@@H]1[C@@H]2CC[C@]2(C)C(=O)CC[C@@H]12` gave an IC50 of 49.2 µM.

`C=C[C@]12CCC(=O)C=C1CC[C@@H]1[C@@H]2CC[C@]2(C)C(=O)CC[C@@H]12`: the IC50 is 0.1 µM. This IC50 lies about 490-fold lower than the previous one.

Compound `C[C@]12C[C@@H](F)C(=O)C=C1[C@H](F)C[C@@H]1[C@@H]2CC[C@]2(C)C(=O)CC[C@@H]12` gave an IC50 of 1 µM. This IC50 is about 10-fold higher than that of the compound before.

`CCCC1=C[C@@H]2[C@H](CC[C@]3(C)C(=O)CC[C@@H]23)[C@@]2(C)CCC(=O)C=C12`: 0.315 µM corresponded to half-maximal inhibition (IC50).

As to `CC1(C)C[C@@]2(C)C(=CC1=O)[C@H](Br)C[C@@H]1[C@@H]2CC[C@]2(C)C(=O)CC[C@@H]12`, the IC50 is 0.11 µM. Compared with the last compound, the IC50 is about 2.9-fold lower.

In turn, `C[C@H]1C[C@@H]2[C@H](CC[C@]3(C)C(=O)CC[C@@H]23)[C@@]2(C)CCCC=C12` showed an IC50 of 0.037 µM.

`Cc1cc2c(cc1O)CC[C@@H]1[C@@H]2CC[C@]2(C)C(=O)CC[C@@H]12` gave a half-inhibitory concentration (IC50) of 4.3 µM.

In turn, `CCCCC1=C[C@@H]2[C@H](CC[C@]3(C)C(=O)CC[C@@H]23)[C@@]2(C)C=CC(=O)C=C12` had an IC50 of 0.25 µM. Against the preceding compound, the IC50 is about 17-fold lower.

The compound `CCCCOC1=C[C@@]2(C)C(=CC1=O)CC[C@@H]1[C@@H]2CC[C@]2(C)C(=O)CC[C@@H]12` had a concentration for half-maximal inhibition (IC50) of 29.6 µM.

`C[C@]12CCC(=O)C=C1[C@H](CCc1ccccc1)C[C@@H]1[C@@H]2CC[C@]2(C)C(=O)CC[C@@H]12` had a concentration for half-maximal inhibition (IC50) of 1050 µM.

`C[C@]12C=C(O)C(=O)C=C1C(=O)C[C@@H]1[C@@H]2CC[C@]2(C)C(=O)CC[C@@H]12` gave an IC50 of 5.6 µM. This IC50 is about 190-fold lower than that of the compound before.

As for `CC[C@@H]1C[C@@H]2[C@H](CC[C@]3(C)C(O)CC[C@@H]23)[C@@]2(C)CCCC=C12` (some centres not stated), half-maximal inhibition (IC50) was put at 1.3 µM.

For the compound `C[C@]12CCC(=O)C=C1C(=O)[C@@H](O)[C@@H]1[C@@H]2CC[C@]2(C)C(=O)CC[C@@H]12`, half-maximal inhibition (IC50) was put at 11 µM.

As to `CCC[C@H]1C[C@@H]2[C@H](CC[C@]3(C)C(=O)CC[C@@H]23)[C@@]2(C)CCC(=O)C=C12`, the IC50 is 0.39 µM. Compared with the last compound, the IC50 is about 28-fold lower.

`CC1(C)C[C@@]2(C)C(=CC1=O)C(=O)C[C@@H]1[C@@H]2CC[C@]2(C)C(=O)CC[C@@H]12` gave an IC50 of 0.3 µM.

`C[C@]12CCC(=O)c3nn(C/C=C/c4ccccc4)c(c31)C[C@@H]1[C@@H]2CC[C@]2(C)C(=O)CC[C@@H]12` had an IC50 of 0.951 µM.

As for `C[C@]12CC[C@H]3[C@@H](C=CC45OC4C(=O)CC[C@]35C)[C@@H]1CCC2=O` (some centres not stated), the concentration for half-maximal inhibition (IC50) is 15.3 µM.

`C[C@]12C=C(Cc3ccccc3)C(=O)C=C1CC[C@@H]1[C@@H]2CC[C@]2(C)C(=O)CC[C@@H]12` showed a half-maximal inhibitory concentration (IC50) of 86.5 µM.

Turning to `C[C@]12CC[C@@H]3c4ccc(O)c(F)c4CC[C@H]3[C@@H]1CCC2=O`, the IC50 is 26 µM.

The term IC50 denotes the midpoint of a concentration-inhibition curve. Lower therefore signals inhibition by little substance.

The values above are taken from ChEMBL document CHEMBL5241054, “Effective anti-aromatase therapy to battle against estrogen-mediated breast cancer: Comparative SAR/QSAR assessment on steroidal aromatase inhibitors” (Eur J Med Chem, 2020).
